These results are taken from patent US4321260A, “Method of using gonadorelin for the treatment of benign prostatic hyperplasia” (Ayerst, McKenna & Harrison Inc., priority 1980, dated 1982).

“Also recorded” adds a separate entry of the source.

One data set has as its system seminal vesicles. As to the kind of experiment: 3-week daily s.c. treatment of male rats, weight of the seminal vesicles. The data set is classed as in vivo, Sprague-Dawley rats. As to conditions: for weight of the seminal vesicles (wet weight): male rats. The protocol: (§1) Adult male Sprague-Dawley rats weighing 275-325 g upon arrival were obtained from Canadian Breeding Laboratories, St. Constant, Quebec, Canada. All animals were housed 2 per cage in an air-conditioned (21±1° C.; 45-50% humidity) and light (12 hours light, 12 hours darkness)-controlled room and given food and water ad libitum. […] Rats were killed by decapitation 24 hours after the last injection. The testes, seminal vesicles and ventral prostate were removed, chilled, weighed and kept frozen at -20° C. until use.

The test system of a further data set is ventral prostate. As to the kind of experiment: 3-week daily s.c. treatment of male rats, weight of the ventral prostate. The data set is classed as in vivo, Sprague-Dawley rats. As to conditions: for weight of the ventral prostate (wet weight): male rats. How it is done:
as §1

A further data set deals with testes. As to conditions: in vivo; cited from earlier work.
[1] abbreviates: 25μg s.c. daily, 1 week of treatment.
[2] abbreviates: 25μg s.c. daily, 2 weeks of treatment.
The mark [3] stands for this setting: 25μg s.c. daily, 3 weeks of treatment.
Where [4] appears, read: 250μg s.c. daily, 1 week of treatment.
[5] abbreviates: 250μg s.c. daily, 2 weeks of treatment.
Where [6] appears, read: 250μg s.c. daily, 3 weeks of treatment.
Where [7] appears, read: 2500μg s.c. daily, 1 week of treatment.
The mark [8] stands for this setting: 2500μg s.c. daily, 2 weeks of treatment.
[9] abbreviates: 2500μg s.c. daily, 3 weeks of treatment.
The mark [10] stands for this setting: daily subcutaneous administration to male rats up to three weeks, listed as gonadorelin.

With `CC(C)C[C@H](NC(=O)CNC(=O)[C@H](Cc1ccc(O)cc1)NC(=O)[C@H](CO)NC(=O)[C@H](Cc1c[nH]c2ccccc12)NC(=O)[C@H](Cc1cnc[nH]1)NC(=O)[C@@H]1CCC(=O)N1)C(=O)N[C@@H](CCCNC(=N)N)C(=O)N1CCC[C@H]1C(=O)NCC(N)=O` [LH-RH, Pyr-His-Trp-Ser-Tyr-Gly-Leu-Arg-Pro-Gly-NH2], the “weight of the seminal vesicles (wet weight)” value in the data set on seminal vesicles (setting [1]) is 281 ± 14 mg; in the data set on seminal vesicles (setting [2]), 247 ± 9 mg; in the data set with seminal vesicles (setting [3]), 260 ± 13 mg; in the data set with seminal vesicles (setting [4]), 298 ± 10 mg; with seminal vesicles (setting [5]) it was 249 ± 18 mg; in the data set with seminal vesicles (setting [6]), 210 ± 8 mg. Also, the entries for the “weight of the seminal vesicles (wet weight)” value in the data set with seminal vesicles (setting [7]), in the data set on seminal vesicles (setting [8]) and in the data set on seminal vesicles (setting [9]) were 265 ± 10 mg, 236 ± 13 mg and 225 ± 9 mg, respectively. For the same compound, in the data set with seminal vesicles (setting [10]), the “effect on the weight of seminal vesicles (in words)” value is “significant decrease; also recorded: significantly decreases”. Besides, the “weight of the ventral prostate (wet weight)” value in the data set with ventral prostate (setting [1]) was 359 ± 23 mg; in the data set on ventral prostate (setting [2]), 415 ± 31 mg; in the data set on ventral prostate (setting [3]), 378 ± 13 mg; in the data set with ventral prostate (setting [4]), 360 ± 26 mg; in the data set with ventral prostate (setting [5]), 380 ± 38 mg; with ventral prostate (setting [6]), 370 ± 25 mg. Besides, the “weight of the ventral prostate (wet weight)” value with ventral prostate (setting [7]) was found to be 325 ± 12 mg; in the data set on ventral prostate (setting [8]), 355 ± 31 mg; in the data set with ventral prostate (setting [9]), 373 ± 18 mg. In addition, the “effect on ventral prostate weight (in words)” value in the data set on ventral prostate (setting [10]) is “significant decrease; also recorded: significantly decreases”.

On to “[D-Leu^6,des-Gly-NH2^10 ]-LH-RH ethylamide”, for which, in the data set with testes, the “selective effect (decrease of seminal vesicle and ventral prostate weight while not affecting testicular weight)” value is given as “do not show such a selectivity”.

In the case of “[D-Ala^6, des-Gly-NH2^10 ]-LH-RH ethylamide”, the “selective effect (decrease of seminal vesicle and ventral prostate weight while not affecting testicular weight)” value in the data set on testes is on record as “do not show such a selectivity”.
